Assay results: US20220331414A1, “LIPID COMPOUNDS AND LIPID NANOPARTICLE COMPOSITIONS” (Suzhou Abogen Biosciences Co., Ltd., priority 2020, published 2022)

Key:
[1] = Encapsulation efficiency of lipid nanoparticles (Quant-it Ribogreen RNA assay); format: physicochemical
Procedure: (§1) Briefly, a cationic lipid provided herein, DSPC, cholesterol, and PEG-lipid were solubilized in ethanol at a molar ratio of 50:10:38.5:1.5, and mRNA were diluted in 10 to 50 mM citrate buffer, pH=4. The LNPs were prepared at a total lipid to mRNA weight ratio of approximately 10:1 to 30:1 by mixing the ethanolic lipid solution with the aqueous mRNA solution at a volume ratio of 1:3 using a microfluidic apparatus, total flow rate ranging from 9-30 mL/min. Ethanol were thereby removed and replaced by DPBS using dialysis. Finally, the lipid nanoparticles were filtered through a 0.2 μm sterile filter.
(§2) Lipid nanoparticle size were determined by dynamic light scattering using a Malvern Zetasizer Nano ZS (Malvern UK) using a 173° backscatter detection mode. The encapsulation efficiency of lipid nanoparticles were determined using a Quant-it Ribogreen RNA quantification assay kit (Thermo Fisher Scientific, UK) according to the manufacturer's instructions.

[2] = Apparent pKa of LNP formulations by TNS fluorescence assay; conditions: LNP cationic lipid/DSPC/cholesterol/DMG-PEG 50/10/38.5/1.5 mol %, pH 3 to 9
Procedure: TNS was prepared as a 300 uM stock solution in distilled water. LNP formulations were diluted to 0.1 mg/ml total lipid in 3 mL of buffered solutions containing 50 mM sodium citrate, 50 mM sodium phosphate, 50 mM sodium borate, and 30 mM sodium chloride where the pH ranged from 3 to 9. An aliquot of the TNS solution was added to give a final concentration of 0.1 mg/ml and following vortex mixing fluorescence intensity was measured at room temperature in a Molecular Devices Spectramax iD3 spectrometer using excitation and mission wavelengths of 325 nm and 435 nm. A sigmoidal best fit analysis was applied to the fluorescence data and the pKa value was measured as the pH giving rise to half—maximal fluorescent intensity.

[3] = Lipid nanoparticle size and polydispersity by dynamic light scattering; format: physicochemical; conditions: LNP of cationic lipid/DSPC/cholesterol/PEG-lipid 50:10:38.5:1.5 with mRNA
Procedure: as §1, §2

[4] = LNP of cationic lipid/DSPC/cholesterol/PEG-lipid 50:10:38.5:1.5 with mRNA

SMILES | Encapsulation Efficiency [1, 4] | Apparant Pka [2] | polydispersity [3] | size (nm) [3] | Encapsulation Efficiency ([1]; cell printed without % sign)
CCCCCCCCCCCCCOP(=O)(NCCN1CCCCC1)OCCCCCCCC(=O)OC(CCCCCCCC)CCCCCCCC (stereo not drawn) [Compound 34] | 98.4% | 7.45 | 0.258 | 58.48 nm | 
CCCCCCC(CCCCCC)COP(=O)(NCCN(CC)CC)OCC(CCCCCC)CCCCCC [Compound 82] | 86.9% | 6.097 | 0.138 | 70.5 nm | 
CCCCCCCCCOP(=O)(NCCN1CCCCC1)OCCCCCCCC(=O)OC(CCCCCCCC)CCCCCCCC (stereo not drawn) [Compound 33] | 98.2% | 7.74 | 0.091 | 128.5 nm | 
CCCCCCCCC(CCCCCC)COP(=O)(NCCN1CCCC1)OCC(CCCCCC)CCCCCCCC (stereo not drawn) [Compound 24] | 98.0% | 6.63 | 0.131 | 81.53 nm | 
CCCCCCCCC(CCCCCC)COP(=O)(NCCN1CCC(F)(F)C1)OCC(CCCCCC)CCCCCCCC (stereo not drawn) [Compound 60] | 55.0% | 3.726 | 0.179 | 85.33 nm | 
CCCCCCCCCCC(CCCCCC)COP(=O)(NCCN(CC)CC)OCC(CCCCCC)CCCCCCCCCC (stereo not drawn) [Compound 66] | 94.4% | 6.149 | 0.141 | 54.17 nm | 
CCCCCCC(CCCCCC)COP(=O)(NCCN(CC)CC)OCC(CCCCCC)CCCCCC [Compound 65] | 94.1% | 6.133 | 0.085 | 95.97 nm | 
CCCCCCCCC(C)COP(=O)(NCCN1CCCC1)OCC(C)CCCCCCCC (stereo not drawn) [Compound 68] | 95.0% | 7.401 | 0.253 | 86.75 nm | 
CCCCCCCCCOP(=O)(NCCCN(C)C)OCCCCCCCCC [Compound 4] | 73.2% | 8.26 | 0.055 | 72.06 nm | 
CCCCCCCCC(CCCCCC)COP(=O)(NCCN1CCOCC1)OCC(CCCCCC)CCCCCCCC (stereo not drawn) [Compound 30] | 16.8% | 3.88 | 0.197 | 71.91 nm | 
CCCCCCCCC(CCCCCC)COP(=O)(NCCCN1CCCC1)OCC(CCCCCC)CCCCCCCC (stereo not drawn) [Compound 25] | 52.3% | 5.49 | 0.057 | 109.7 nm | 
CCCCCCCCC(CCCCCC)COP(=O)(NCCN(CCO)C1CCCCC1)OCC(CCCCCC)CCCCCCCC (stereo not drawn) [Compound 47] |  | 5.27 | 0.071 | 73.53 nm | 0.864
CCCCCCCCCOP(=O)(NCCN(C)C)OCCCCCCCCC [Compound 3] | 61.6% | 8.59 | 0.154 | 53.41 nm | 
CCCCCCCCC(CCCCCC)COP(=O)(NCCN1CCCCCC1)OCC(CCCCCC)CCCCCCCC (stereo not drawn) [Compound 28] | 48.1% | 4.92 | 0.204 | 77.49 nm | 
CCCCCCCCC(CCCCCC)COP(=O)(OCCN1CCCCC1)OCC(CCCCCC)CCCCCCCC (stereo not drawn) [Compound 77] | 85.2% | 5.309 | 0.138 | 63.36 nm | 
CCCCCCCCC(CCCCCCCC)COP(=O)(NCCN(CC)CC)OCC(CCCCCCCC)CCCCCCCC [Compound 80] | 94.2% | 6.259 | 0.172 | 57.31 nm | 
CCCCCCCCC(CCCCCC)COP(=O)(NCCN1CC2CC2C1)OCC(CCCCCC)CCCCCCCC (stereo not drawn) [Compound 62] | 89.9% | 5.063 | 0.338 | 56.35 nm | 
CCCCCCCCCCCCCOP(=O)(NCCN1CCC1)OCCCCCCCC(=O)OC(CCCCCCCC)CCCCCCCC (stereo not drawn) [Compound 41] | 101.1% | 7.70 | 0.306 | 50.64 nm | 
CCCCCCCCCCCCCOP(=O)(NCCCN(C)C)OCCCCCCCC(=O)OC(CCCCCCCC)CCCCCCCC (stereo not drawn) [Compound 39] | 100.0% | 6.52 | 0.408 | 69.38 nm | 
CCCCCCCCCCCCCCOP(=O)(NCCCN(C)C)OCCCCCCCCCCCCCC [Compound 11] | 81.3% | 8.53 | 0.092 | 107.7 nm | 
CCCCCCCCC(CCCCCC)COP(=O)(NCCCN1CCCCC1)OCC(CCCCCC)CCCCCCCC (stereo not drawn) [Compound 27] | 75.7% | 5.18 | 0.135 | 83.11 nm | 
CCCCCCCCC(CCCCCC)COP(=O)(NCCN(CCO)CCCC)OCC(CCCCCC)CCCCCCCC (stereo not drawn) [Compound 14] | 88.8% | 5.64 | 0.037 | 138.5 nm | 
CCCCCCCCC(CCCCCC)COP(=O)(NCCN1CCCCC1)OCC(CCCCCC)CCCCCCCC (stereo not drawn) [Compound 26] | 93.6% | 4.99 | 0.27 | 68.19 nm | 
CCCCCCCCCCCCCOP(=O)(NCCN1CCOCC1)OCCCCCCCCCCCCC [Compound 15] | 73.6% | 5.90 | 0.059 | 104.3 nm | 
CCCCCCCCC(CCCCCC)COP(=O)(NCCCCN(C)C)OCC(CCCCCC)CCCCCCCC (stereo not drawn) [Compound 22] | 98.7% | 7.37 | 0.101 | 79.13 nm | 
CCCCCCCCC(CCCCCC)COP(=O)(OCCN1CCCC1)OCC(CCCCCC)CCCCCCCC (stereo not drawn) [Compound 76] | 76.6% | 4.666 | 0.24 | 74.49 nm | 
CCCCCCCCC(CCCCCC)COP(=O)(NCCN(CCO)C1CCCC1)OCC(CCCCCC)CCCCCCCC (stereo not drawn) [Compound 58] | 88.8% | 5.681 | 0.057 | 97.61 nm | 
CCCCCCCCC(CC)COP(=O)(NCCN(CC)CC)OCC(CC)CCCCCCCC (stereo not drawn) [Compound 67] | 93.3% | 7.195 | 0.116 | 86.9 nm | 
CCCCCCCCC(CCCCCC)COP(=O)(NCCN(C)C)OCC(CCCCCC)CCCCCCCC (stereo not drawn) [Compound 21] | 70.2% | 4.79 | 0.105 | 80.66 nm | 
CCCCCCCCC(CCCCCCCC)OC(=O)CCCCCCCOP(=O)(NCCCCN(C)C)OCCCCCCC (stereo not drawn) [Compound 44] | 94.0% | 5.17 | 0.187 | 51.72 nm | 
